Laboratory results as given in PubChem BioAssay AID298 (DTP/NCI, 2004).
“And” between values parts separate entries of the source, which are not always exact repeats. Equal values may be shown once. Results filed as inconclusive are left out. *1 amine or outer side, *2 acyl side, *3 side chain or, on linkers, in order; H or OH if unused. Where a SMILES comes first, the peptide text is derived from it. Bridges are numbered along the chain shown (N, C = ends). Roman numbers before positions name the chains, in order. [ ]: non-standard residue; d: D form. Actinocin(9to1) = Cc1c2oc3c(C)ccc(C(=O)[*:1])c3nc-2c(C(=O)[*:2])c(N)c1=O; aThr = C[C@H](O)[C@H](N)C(=O)O; NMeV = CN[C@H](C(=O)O)C(C)C; Sar = CNCC(=O)O

Tested on: MX-1 breast xenograft, intrarenal, nude mice, tumor weight
Assay: NCI In Vivo Anticancer Drug Screen. Data for tumor model Human Mammary Carcinoma MX-1 Xenograft (intrarenal inoculation) in NU/NU BALB/C (nude) mice
Details: endpoint: mean tumor weight change, higher = larger tumour
Protocol: The antitumor activity of compounds was measured in mice bearing transplantable tumors. Survival or tumor size were measured and the results are expressed as the measurement made in the treated group (T) divided by the measurement made in the vehicle treated control group (C). The tumor model used in this assay is Human Mammary Carcinoma MX-1 Xenograft (intrarenal inoculation) in NU/NU BALB/C (nude) mice

[1] = dose: 25.0 mg/kg/injection, schedule: Q01DX010 (sc), vehicle: saline
[2] = dose: 100.0 mg/kg/injection, schedule: Q01DX010 (sc), vehicle: saline
[3] = dose: 150.0 mg/kg/injection, schedule: Q04DX003 (ip), vehicle: water

`CC(/C=N/N=C(N)N)=N\N=C(N)N` was tested, and the T/C (dose: 25.0 mg/kg/injection, schedule: Q01DX010 (sc), vehicle: water) was 167 % of control, the T/C (dose: 50.0 mg/kg/injection, schedule: Q01DX010 (sc), vehicle: water) was 73 % of control and the T/C (dose: 100.0 mg/kg/injection, schedule: Q01DX010 (sc), vehicle: water) was 43 % of control.
In the case of `CC(=O)C[n+]1ccc(C)cc1Sc1ccccc1C`, the T/C (dose: 15.0 mg/kg/injection, schedule: Q04DX003 (ip), vehicle: suspension in saline) is reported as 111 % of control, the T/C (dose: 30.0 mg/kg/injection, schedule: Q04DX003 (ip), vehicle: suspension in saline) is reported as 97 % of control and the T/C (dose: 60.0 mg/kg/injection, schedule: Q04DX003 (ip), vehicle: suspension in saline) is reported as 80 % of control. For the same molecule, the T/C (dose: 120.0 mg/kg/injection, schedule: Q04DX003 (ip), vehicle: suspension in saline) was 102 % of control.
In the case of `COc1cccc2c1C(=O)c1c(O)c3c(c(O)c1C2=O)C[C@@](O)(C(=O)CO)C[C@@H]3OC1CC(N)C(O)C(C)O1` (stereo partly specified), the T/C (dose: 2.0 mg/kg/injection, schedule: Q04DX003 (ip), vehicle: water) is reported as 33 % of control, the T/C (dose: 4.0 mg/kg/injection, schedule: Q04DX003 (ip), vehicle: water) is reported as 7 % of control and the T/C (dose: 8.0 mg/kg/injection, schedule: Q04DX003 (ip), vehicle: water) is reported as -88 % of control.
In the case of `Nc1ccc(Cn2ccc3c4c(N)nc(N)nc4ccc32)cc1`, the T/C (dose: 18.75 mg/kg/injection, schedule: Q04DX003 (sc), vehicle: saline with Tween-80) is reported as 80 % of control and the T/C (dose: 37.5 mg/kg/injection, schedule: Q04DX003 (sc), vehicle: saline with Tween-80) is reported as 75 % of control.
`CN(CO)c1nc(N(C)CO)nc(N(C)CO)n1` was tested, and the T/C (dose: 6.25 mg/kg/injection, schedule: Q01DX010 (sc), vehicle: saline) was 86 % of control, the T/C (dose: 12.5 mg/kg/injection, schedule: Q01DX010 (sc), vehicle: saline) was 30 % of control and the T/C [1] was 2 % of control. The T/C [2] was 1 % of control.
`O=C1c2cccc(NCCCNCCO)c2C(=O)c2cccc(NCCCNCCO)c21` was tested, and the T/C (dose: 18.75 mg/kg/injection, schedule: Q04DX003 (ip), vehicle: acid diluted with saline) was 89 % of control and the T/C (dose: 37.5 mg/kg/injection, schedule: Q04DX003 (ip), vehicle: acid diluted with saline) was 171 % of control.
`[Na+]` was tested, and the T/C [3] was 66 % of control, the T/C (dose: 600.0 mg/kg/injection, schedule: Q04DX003 (ip), vehicle: water) was 84 % of control and the T/C (dose: 1200.0 mg/kg/injection, schedule: Q04DX003 (ip), vehicle: water) was 97 % of control.
`O=C(O)c1cc(C(=O)O)c(C(=O)O)cc1C(=O)O.[NH2-].[NH2-].[NH2-].[NH2-].[Pt+2].[Pt+2]` was tested, and the T/C (dose: 10.0 mg/kg/injection, schedule: Q04DX003 (ip), vehicle: water) was 81 % of control, the T/C (dose: 20.0 mg/kg/injection, schedule: Q04DX003 (ip), vehicle: water) was 42 % of control and the T/C (dose: 40.0 mg/kg/injection, schedule: Q04DX003 (ip), vehicle: water) was 12 % of control.
With `CSc1cc(=O)n2c3ccccc3c3ccnc1c32` the T/C (dose: 80.0 mg/kg/injection, schedule: Q04DX003 (sc), vehicle: saline with Tween-80) was 89 % of control, the T/C (dose: 160.0 mg/kg/injection, schedule: Q04DX003 (sc), vehicle: saline with Tween-80) was 26 % of control and the T/C (dose: 320.0 mg/kg/injection, schedule: Q04DX003 (sc), vehicle: saline with Tween-80) was 40 % of control.
In the case of `Cc1c2oc3c(C)ccc(C(=O)N[C@@H]4C(=O)N[C@H](C(C)C)C(=O)N5CCC[C@H]5C(=O)N(C)CC(=O)N(C)[C@@H](C(C)C)C(=O)O[C@H]4C)c3nc-2c(C(=O)N[C@@H]2C(=O)N[C@H](C(C)C)C(=O)N3CCC[C@H]3C(=O)N(C)CC(=O)N(C)[C@@H](C(C)C)C(=O)O[C@H]2C)c(N)c1=O` (I: [aThr][dV]P[Sar][NMeV] / II: [aThr][dV]P[Sar][NMeV]; ester I:1-I:C, II:1-II:C; linker I:N-II:N via Actinocin(9to1)), the T/C (dose: 25.0 micrograms/kg/injection, schedule: Q01DX010 (sc), vehicle: saline) is reported as 100 % of control, the T/C (dose: 50.0 micrograms/kg/injection, schedule: Q01DX010 (sc), vehicle: saline) is reported as 49 % of control and the T/C (dose: 100.0 micrograms/kg/injection, schedule: Q01DX010 (sc), vehicle: saline) is reported as 12 % of control. For the same molecule, the T/C (dose: 200.0 micrograms/kg/injection, schedule: Q01DX010 (sc), vehicle: saline) was 1 % of control.
`CNC(=O)ON(C(C)=O)C(=O)NC` was tested, and the T/C (dose: 12.5 mg/kg/injection, schedule: Q01DX010 (ip), vehicle: saline) was 218 % of control, the T/C (dose: 25.0 mg/kg/injection, schedule: Q01DX010 (ip), vehicle: saline) was 106 % of control and the T/C [1] was 104 % of control. The T/C (dose: 50.0 mg/kg/injection, schedule: Q01DX010 (ip), vehicle: saline) was 72 % of control, the T/C (dose: 50.0 mg/kg/injection, schedule: Q01DX010 (sc), vehicle: saline) was 26 % of control and the T/C (dose: 100.0 mg/kg/injection, schedule: Q01DX010 (ip), vehicle: saline) was 5 % of control. The T/C [2] was -42 % of control and the T/C (dose: 200.0 mg/kg/injection, schedule: Q01DX010 (sc), vehicle: saline) was -89 % of control.
`CC(=O)Nc1ccc(Nc2ccc(C(=C3C=CC(=[N+](C)CCC#N)C=C3)c3ccc(N(C)CCC#N)cc3)cc2)cc1` was tested, and the T/C (dose: 12.5 mg/kg/injection, schedule: Q04DX003 (ip), vehicle: saline) was 45 % of control, the T/C (dose: 25.0 mg/kg/injection, schedule: Q04DX003 (ip), vehicle: saline) was 80 % of control and the T/C (dose: 50.0 mg/kg/injection, schedule: Q04DX003 (ip), vehicle: saline) was 63 % of control. The T/C (dose: 100.0 mg/kg/injection, schedule: Q04DX003 (ip), vehicle: saline) was 97 % of control, the T/C (dose: 100.0 mg/kg/injection, schedule: Q04DX003 (ip), vehicle: suspension in saline) was 84 % of control and the T/C (dose: 200.0 mg/kg/injection, schedule: Q04DX003 (ip), vehicle: suspension in saline) was 45 % of control.
For `O=NNc1ccc2cccnc2n1`, the T/C (dose: 37.5 mg/kg/injection, schedule: Q04DX003 (ip), vehicle: other) was 6 % of control, the T/C (dose: 37.5 mg/kg/injection, schedule: Q04DX003 (ip), vehicle: water) was 63 % of control and the T/C (dose: 75.0 mg/kg/injection, schedule: Q04DX003 (ip), vehicle: other) was -45 % of control. For the same molecule, the T/C (dose: 75.0 mg/kg/injection, schedule: Q04DX003 (ip), vehicle: water) was 17 % of control and the T/C [3] was 9 % of control.
For `CCCn1c(SC)nc(COC(=O)NC)c1COC(=O)NC`, the T/C (dose: 30.0 mg/kg/injection, schedule: Q04DX003 (ip), vehicle: saline) was 62 % of control, the T/C (dose: 60.0 mg/kg/injection, schedule: Q04DX003 (ip), vehicle: saline) was 38 % of control and the T/C (dose: 120.0 mg/kg/injection, schedule: Q04DX003 (ip), vehicle: saline) was 7 % of control. The T/C (dose: 240.0 mg/kg/injection, schedule: Q04DX003 (ip), vehicle: saline) was -100 % of control.
In the case of `Cc1ccccc1N=C(c1ccccc1)C1C(=O)c2ccccc2C1=O`, the T/C (dose: 150.0 mg/kg/injection, schedule: Q04DX003 (ip), vehicle: DMSO) is reported as 117 % of control, the T/C (dose: 300.0 mg/kg/injection, schedule: Q04DX003 (ip), vehicle: DMSO) is reported as 102 % of control and the T/C (dose: 600.0 mg/kg/injection, schedule: Q04DX003 (ip), vehicle: DMSO) is reported as 103 % of control. The T/C (dose: 1200.0 mg/kg/injection, schedule: Q04DX003 (ip), vehicle: DMSO) was 65 % of control.
`COc1ccc(Cl)[n+]([O-])n1` was tested, and the T/C (dose: 25.0 mg/kg/injection, schedule: Q04DX003 (sc), vehicle: Klucel (hydroxypropylcellulose) (HPC)) was 119 % of control, the T/C (dose: 50.0 mg/kg/injection, schedule: Q04DX003 (sc), vehicle: Klucel (hydroxypropylcellulose) (HPC)) was 111 % of control and the T/C (dose: 100.0 mg/kg/injection, schedule: Q04DX003 (sc), vehicle: Klucel (hydroxypropylcellulose) (HPC)) was 106 % of control.
In the case of `CCCCN1C(=O)N(c2ccc(OCC)cc2)C2N(CCCC)C1C(C)(C)C2(C)C` (stereo unspecified), the T/C (dose: 15.0 mg/kg/injection, schedule: Q04DX003 (ip), vehicle: saline with Tween-80) is reported as 90 % of control, the T/C (dose: 30.0 mg/kg/injection, schedule: Q04DX003 (ip), vehicle: saline with Tween-80) is reported as 77 % of control and the T/C (dose: 60.0 mg/kg/injection, schedule: Q04DX003 (ip), vehicle: saline with Tween-80) is reported as 89 % of control. For the same molecule, the T/C (dose: 240.0 mg/kg/injection, schedule: Q04DX003 (ip), vehicle: saline with Tween-80) was 98 % of control.
With `C=CC1(C)CC(=O)C2(O)C(C)(O1)C(OC(C)=O)C(O)C1C(C)(C)CCC(O)C12C` (stereo unspecified) the T/C (dose: 8.0 mg/kg/injection, schedule: Q04DX003 (ip), vehicle: DMSO) was 159 % of control, the T/C (dose: 16.0 mg/kg/injection, schedule: Q04DX003 (ip), vehicle: DMSO) was 100 % of control and 115 % of control and the T/C (dose: 64.0 mg/kg/injection, schedule: Q04DX003 (ip), vehicle: DMSO) was 109 % of control.
With `C=C1C(O)C2OC3(CCC(/C=C/C(C)C4CC5(C)SC5C5(OC(CC(C)(O)C(=O)O)CCC5O)O4)O3)CCC2OC1C(O)CC(C)C1OC2(CCCCO2)CCC1C` (stereo unspecified) the T/C (dose: 5.0 micrograms/kg/injection, schedule: Q04DX003 (ip), vehicle: saline + alcohol) was 92 % of control, the T/C (dose: 10.0 micrograms/kg/injection, schedule: Q04DX003 (ip), vehicle: saline + alcohol) was 84 % of control and the T/C (dose: 40.0 micrograms/kg/injection, schedule: Q04DX003 (ip), vehicle: saline + alcohol) was 56 % of control and 76 % of control.
